Assay results published in publication PMC10584170, “Machine learning-based phenotypic imaging to characterise the targetable biology of Plasmodium falciparum male gametocytes for the development of transmission-blocking antimalarials” (PLOS Pathogens, 2023).

Experiments:
[1] = test system: P. falciparum male gametocytes; assay: P. falciparum Dual Gamete Formation Assay (PfDGFA), male readout (exflagellation); assay type: cell-based, Plasmodium falciparum NF54; conditions: for % inhibition male (individual replicates) R1: replicate R1; for % inhibition male (individual replicates) R3: replicate R3; for % inhibition male (individual replicates) R4: replicate R4; for Average inhibition male (%): average of replicates; for Activity: hit = >50% inhibition in male or female readout in at least 3 replicates, 0 = no class assigned
How it was run: (§1)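 NF54 mature gametocytes (d14), cpd 24 h 37°C hypoxic gas; trigger: xanthurenic acid ookinete medium + Cy3 anti-Pfs25, 4°C 4 min → 28°C 4 min. Male: exflagellation centres, brightfield x6. Female: Pfs25+ gametes, fluorescence, +24 h 28°C dark.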

[2] = test system: P. falciparum female gametocytes; assay: P. falciparum Dual Gamete Formation Assay (PfDGFA), female readout (Pfs25-positive female gametes); assay type: cell-based, Plasmodium falciparum NF54; conditions: for % inhibition female (individual replicates) R1: replicate R1; for % inhibition female (individual replicates) R3: replicate R3; for % inhibition female (individual replicates) R4: replicate R4; for Average inhibition female (%): average of replicates
How it was run: as §1

[3] = PfDGFA at 2µM, 24h preincubation with gametocytes prior to induction of gametogenesis
[4] = PfDGFA at 2µM, 24h preincubation
[5] = 2µM, 24h preincubation with gametocytes prior to induction of gametogenesis
[6] = 2µM, 24h preincubation, hits selected on >50% inhibition in the male readout across replicates
[7] = 2µM, 24h preincubation, hits selected on >50% inhibition in the female readout across replicates
[8] = 2µM, 24h preincubation, number of replicates with >50% inhibition in the male readout
[9] = 2µM, 24h preincubation, number of replicates with >50% inhibition in the female readout

| SMILES | Average inhibition male (%) [1, 5] | % inhibition male (individual replicates) R1 [1, 5] | % inhibition male (individual replicates) R3 [1, 5] | % inhibition male (individual replicates) R4 [1, 5] | Average inhibition female (%) [2, 5] | % inhibition female (individual replicates) R1 [2, 5] | % inhibition female (individual replicates) R3 [2, 5] | % inhibition female (individual replicates) R4 [2, 5] | HitlevelM [1, 8] | HitlevelF [2, 9] | other results |
| --- | --- | --- | --- | --- | --- | --- | --- | --- | --- | --- | --- |
| CC(Cc1ccc(COc2ccc(CC(CO)NCCc3cccc(Cl)c3)cc2)cc1)NCCc1cccc(Cl)c1.Cl (stereo not drawn) [TCMDC-139844] |  |  |  |  |  |  |  |  |  |  | % inhibition male (individual replicates) R1 [1, 3]: -13.5%; % inhibition male (individual replicates) R3 [1, 3]: 14.9%; % inhibition male (individual replicates) R4 [1, 3]: 2.8%; Average inhibition male (%) [1, 4]: 1.7%; % inhibition female (individual replicates) R1 [2, 3]: -3.0%; % inhibition female (individual replicates) R3 [2, 3]: -11.7%; % inhibition female (individual replicates) R4 [2, 3]: 12.8%; Average inhibition female (%) [2, 4]: 1.7% |
| CC(Cc1ccc(NC(=O)c2ccc(CNCCc3ccccc3)cc2)cc1)NCCc1cccc(Cl)c1.Cl (stereo not drawn) [TCMDC-139867] | 35.8% | 30.2% | 5.8% | 68.9% | 17.5% | 19.8% | 17.3% | 1.2% |  |  | HitlevelM [1, 6]: 1; Activity [1, 4]: 0; HitlevelF [2, 7]: 0 |
| CCCCCCCN1CC[C@@H](CCCc2ccnc3ccc(OC)cc23)[C@@H](CNC)C1.O=C(O)C(=O)O [TCMDC-139875] | 45.5% | 37.4% | 18.3% | 73.6% | 34.8% | 28.9% | 7.1% | 50.9% | 2 | 2 |  |
| COc1ccc(OC)c(C=CC(=O)NC2CCC(CN3CCC(c4c[nH]c5ccccc45)CC3)CC2)c1 (stereo not drawn) [TCMDC-139893] |  |  |  |  |  |  |  |  |  |  | % inhibition male (individual replicates) R1 [1, 3]: 4.2%; % inhibition male (individual replicates) R3 [1, 3]: -21.0%; % inhibition male (individual replicates) R4 [1, 3]: 20.2%; Average inhibition male (%) [1, 4]: 1.9%; % inhibition female (individual replicates) R1 [2, 3]: 6.5%; % inhibition female (individual replicates) R3 [2, 3]: -21.7%; % inhibition female (individual replicates) R4 [2, 3]: -6.1%; Average inhibition female (%) [2, 4]: -1.6% |
| CN(C)CCCNCc1ccc(-c2ccc(C(F)(F)F)cc2)cc1 [TCMDC-140011] | 54.2% | 60.9% | 33.7% | 61.6% | 26.9% | 39.3% | -6.8% | 25.9% | 3 | 0 |  |
| OCc1c(Cl)cc(Cl)cc1CNCCCNc1nc2ccccc2[nH]1 [TCMDC-140012] |  |  |  |  |  |  |  |  |  |  | % inhibition male (individual replicates) R1 [1, 3]: -9.5%; % inhibition male (individual replicates) R4 [1, 3]: -7.6%; Average inhibition male (%) [1, 4]: -5.6%; % inhibition female (individual replicates) R1 [2, 3]: -1.6%; % inhibition female (individual replicates) R3 [2, 3]: -10.9%; % inhibition female (individual replicates) R4 [2, 3]: -3.1%; Average inhibition female (%) [2, 4]: -6.6% |
| Nc1ccc2[nH]cc(C3CCN(CCC4CCN(C(=O)/C=C/c5ccc(Cl)c(Cl)c5)CC4)CC3)c2n1 [TCMDC-140062] | 34.7% | 41.7% | -5.5% | 54.9% | 24.0% | 25.9% | 21.4% | 19.8% | 1 | 0 |  |
| O=C(/C=C/c1ccc(Cl)c(Cl)c1)N1CCC(CN2CCC(c3c[nH]c4ccncc34)CC2)CC1 [TCMDC-140074] | 29.9% | 24.9% | -2.0% | 40.2% | 19.7% | 24.3% | 8.2% | 6.7% | 1 | 0 |  |
| COc1cc(C(=O)NC2CCN(Cc3ccccc3)CC2)ccc1-c1nc2cc(Cl)c(Cl)cc2[nH]1 [TCMDC-140078] | 4.4% | 13.3% | 2.8% | 2.9% | 6.4% | 17.0% | -8.0% | 18.5% |  |  | HitlevelM [1, 6]: 0; Activity [1, 4]: 0; HitlevelF [2, 7]: 0 |
| CN(C)CCCOc1cccc(CCNCc2cccc(Oc3ccc(Cl)cc3)c2)c1.O=C(O)C(F)(F)F [TCMDC-140091] | 24.7% | 7.1% | 12.3% | 44.2% | 6.3% | 16.6% | -0.66% | -7.8% |  |  | HitlevelM [1, 6]: 0; Activity [1, 4]: 0; HitlevelF [2, 7]: 0 |
| CC(=O)Nc1ccc2[nH]cc(C3CCN(CC4CCC(NC(=O)/C=C/c5ccccc5Cl)CC4)CC3)c2n1 (stereo not drawn) [TCMDC-140111] | 33.8% | 38.4% |  | 14.3% | 28.1% | 31.7% | 20.9% | 26.6% | 0 | 0 |  |
| CC(=O)Nc1ccc2[nH]cc(C3CCN(CC4CCN(C(=O)/C=C/c5ccc(Cl)c(Cl)c5)CC4)CC3)c2n1 [TCMDC-140112] | 36.8% | 41.7% | 26.0% | 45.6% | 33.3% | 35.7% | 28.7% | 36.0% | 0 | 0 |  |
| CC(=O)Nc1ccc2[nH]cc(C3CCN(CC4CCC(NC(=O)/C=C/c5ccc(Cl)c(Cl)c5)CC4)CC3)c2n1 (stereo not drawn) [TCMDC-140114] | 48.3% | 53.7% | 39.7% | 57.6% | 33.1% | 26.2% | 29.8% | 41.8% | 2 | 0 |  |
| Nc1cc2c(C3CCN(CC4CCN(C(=O)/C=C/c5ccc(Cl)c(Cl)c5)CC4)CC3)c[nH]c2cn1 [TCMDC-140133] | 52.8% | 50.4% | 47.4% | 52.9% | 13.5% | 13.3% | 3.5% | 10.0% | 3 | 0 |  |
| O=C(/C=C/c1c(Cl)cccc1Cl)NC1CCC(CN2CCC(c3c[nH]c4ccncc34)CC2)CC1 (stereo not drawn) [TCMDC-140220] | 43.5% | 44.6% | 17.7% | 42.9% | 10.7% | 11.8% | 11.4% | 18.8% |  |  | HitlevelM [1, 6]: 1; Activity [1, 4]: 0; HitlevelF [2, 7]: 0 |
| CN(C)CCCOc1ccccc1CN1CC[C@H](NC(=O)c2ccc(Cl)c(Cl)c2)C1.O=C(O)C(F)(F)F [TCMDC-140310] | 6.1% | 4.0% |  | 4.7% | 10.5% | 10.3% | 9.3% | 14.4% |  |  | HitlevelM [1, 6]: 0; Activity [1, 4]: 0; HitlevelF [2, 7]: 0 |
| Cc1ccc2cc(NC(=O)CCCCCCCON3C(N)=NC(N)=NC34CCCCC4)ccc2n1.O=C(O)C(F)(F)F [TCMDC-140377] |  |  |  |  |  |  |  |  |  |  | % inhibition male (individual replicates) R1 [1, 3]: -16.0%; % inhibition male (individual replicates) R3 [1, 3]: -37.7%; % inhibition male (individual replicates) R4 [1, 3]: -32.5%; Average inhibition male (%) [1, 4]: -24.7%; % inhibition female (individual replicates) R1 [2, 3]: 7.6%; % inhibition female (individual replicates) R3 [2, 3]: -9.1%; % inhibition female (individual replicates) R4 [2, 3]: 0.33%; Average inhibition female (%) [2, 4]: 0.7% |
| Cc1cc(CNCCCCCCNCc2ccc(-c3ccccc3)cc2)ccc1O [TCMDC-140412] |  |  |  |  |  |  |  |  |  |  | % inhibition male (individual replicates) R1 [1, 3]: 6.5%; % inhibition male (individual replicates) R4 [1, 3]: 7.3%; Average inhibition male (%) [1, 4]: 9.5%; % inhibition female (individual replicates) R1 [2, 3]: 8.1%; % inhibition female (individual replicates) R3 [2, 3]: -7.2%; % inhibition female (individual replicates) R4 [2, 3]: 4.6%; Average inhibition female (%) [2, 4]: 1.3% |
